Experimental data: PMC7415729 (Pharmacology, biochemistry, and behavior, 2020)
pEC50, pKi: −log10 of the molar value.

Experiments:
C57BL/6 mice [1] = experiment: Radiotelemetry of core temperature with 1-ABT pretreatment; assay type: in vivo, mouse
C57BL/6 mice [2] = experiment: Cannabinoid tetrad: locomotor activity; assay type: in vivo, mouse; settings: for decrease of locomotor activity below the vehicle control condition: highest tested dose
C57BL/6 mice [3] = experiment: Cannabinoid tetrad: antinociception; assay type: in vivo, mouse; settings: for tail withdrawal latency, % of the maximum: maximal latency 10 sec
C57BL/6 mice [4] = experiment: Cannabinoid tetrad: hypothermia; assay type: in vivo, mouse; settings: for reduction of rectal temperature below the physiological range: highest tested dose
CB1 receptors [5] = target: T1, CB1 receptors (Mus musculus, UniProt P47746); experiment: [35S]GTPγS binding; settings: for pEC50: N=3
[6] = tested on: HIM (human intestinal microsomes); experiment: Oxidative metabolism by human microsomes; assay type: in vitro ADME; settings: 50 μM 5F-AKB48, HIM 1 μg/μl, 60 min
[7] = tested on: HBM (human brain microsomes); experiment: Oxidative metabolism by human microsomes; assay type: in vitro ADME; settings: 50 μM 5F-AKB48, HBM 1 μg/μl, 60 min
[8] = tested on: HLM (human liver microsomes); experiment: Oxidative metabolism by human microsomes; assay type: in vitro ADME; settings: 50 μM 5F-AKB48, mixed gender HLM 1 μg/μl, 60 min
CB1 receptors [9] = target: T1, CB1 receptors; experiment: Competition receptor binding vs [3H]CP-55,940 in mouse brain membranes; settings: pKi, displacement of 0.2 nM [3H]CP-55,940, mouse brain membranes, N=3
C57BL/6 mice [10] = experiment: Cannabinoid tetrad: catalepsy; assay type: in vivo, mouse
[11] = 5F-AKB48 3.2 mg/kg, mice pretreated with 100 mg/kg 1-ABT
[12] = 5F-AKB48 3.2 mg/kg, vehicle-pretreated mice
[13] = rimonabant 10.0 mg/kg i.p. before 3.2 mg/kg 5F-AKB48
[14] = rimonabant 10.0 mg/kg i.p. before 32 mg/kg Δ9-THC

T1 sequence (P47746 whole entry): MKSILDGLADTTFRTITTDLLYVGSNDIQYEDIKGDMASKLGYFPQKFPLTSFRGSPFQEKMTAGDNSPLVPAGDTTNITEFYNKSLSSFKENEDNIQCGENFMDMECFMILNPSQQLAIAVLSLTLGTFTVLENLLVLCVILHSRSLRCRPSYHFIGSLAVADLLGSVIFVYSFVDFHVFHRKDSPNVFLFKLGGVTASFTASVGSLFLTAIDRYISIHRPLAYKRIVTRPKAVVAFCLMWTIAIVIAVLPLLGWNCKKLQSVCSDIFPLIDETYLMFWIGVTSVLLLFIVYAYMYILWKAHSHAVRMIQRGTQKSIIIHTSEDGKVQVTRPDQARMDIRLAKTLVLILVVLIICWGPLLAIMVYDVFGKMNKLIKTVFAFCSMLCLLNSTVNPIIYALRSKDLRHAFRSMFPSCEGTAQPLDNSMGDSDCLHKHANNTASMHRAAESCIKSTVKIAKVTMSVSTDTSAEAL

SMILES: Nn1nnc2ccccc21 [1-ABT, reference compound]
- effect on core temperature (C57BL/6 mice [1]; 100 mg/kg 1-ABT alone, 2 hours): no systematic changes in temperature

SMILES: O=C(NC12CC3CC(CC(C3)C1)C2)c1nn(CCCCCF)c2ccccc12 [5F-AKB48, N-(adamantan-1-yl)-1-(5-fluoropentyl)-1H-indazole-3-carboxamide]
- duration of hypothermic action (C57BL/6 mice [1]; [11]): at least 12 hours
- minimum core temperature below the physiological range (C57BL/6 mice [1]; [11]): approximately 7 °
- minimum core temperature below the physiological range (C57BL/6 mice [1]; [12]): approximately 7 °
- time by which hypothermic effects completely resolved (C57BL/6 mice [1]; [12]): ≤ 4 h
- area under the curve for hypothermic effects, 1-ABT-treated vs vehicle mice (C57BL/6 mice [1]; 5F-AKB48 3.2 mg/kg, 100 mg/kg 1-ABT pretreatment): approximately 5 fold
- decrease of locomotor activity below the vehicle control condition (C57BL/6 mice [2]; 5F-AKB48 3.2 mg/kg i.p.): approximately 5 fold
- duration of antinociceptive effects (still apparent) (C57BL/6 mice [3]; 5F-AKB48 3.2 mg/kg i.p.): at least 6 hours
- tail withdrawal latency, % of the maximum (C57BL/6 mice [3]; 5F-AKB48 3.2 mg/kg i.p., by 15 min post-injection): approximately 90%
- time by which hypothermic effects completely resolved (C57BL/6 mice [4]; 5F-AKB48 3.2 mg/kg i.p.): ≤ 4 h
- reduction of rectal temperature below the physiological range (C57BL/6 mice [4]; 5F-AKB48 3.2 mg/kg i.p.): approximately 4 °
- G protein activation by 1 μM compound on co-incubation with rimonabant (CB1 receptors [5]; 1 μM compound + rimonabant 100 nM, mouse brain membranes): complete reversal
- pEC50 (CB1 receptors [5]; pEC50, [35S]GTPγS binding, mouse brain membranes): 8.21
- pEC50 (CB1 receptors [5]; potency (EC50), [35S]GTPγS binding, mouse brain membranes 25 μg): 8.11
- Emax (CB1 receptors [5]; read-out: Emax, increase of [35S]GTPγS binding): 182%
- oxidative activity / metabolite production [6]: significant amount of activity
- oxidative activity [7]: did not show any activity
- production of hydroxylated metabolites [8]: highest amount
- pKi (CB1 receptors [9]): 9.18
- time by which cataleptic effects largely resolved (C57BL/6 mice [10]; 5F-AKB48 3.2 mg/kg i.p.): ≤ 3 h
- horizontal bar latency (C57BL/6 mice [10]; 5F-AKB48 3.2 mg/kg i.p., any time point, 30 sec cut-off): < 30 s

SMILES: Cc1c(C(=O)NN2CCCCC2)nn(-c2ccc(Cl)cc2Cl)c1-c1ccc(Cl)cc1 [rimonabant]
- effect of prior rimonabant on hypolocomotor effects of 5F-AKB48 (C57BL/6 mice [2]; [13]): partially attenuated
- effect of prior rimonabant on hypolocomotor effects of Δ9-THC (C57BL/6 mice [2]; [14]): partially attenuated
- effect of prior rimonabant on antinociceptive effects of 5F-AKB48 (C57BL/6 mice [3]; [13]): completely blocked
- effect of prior rimonabant on antinociceptive effects of Δ9-THC (C57BL/6 mice [3]; [14]): completely blocked
- effect of prior rimonabant on hypothermic effects of 5F-AKB48 (C57BL/6 mice [4]; [13]): completely blocked
- effect of prior rimonabant on hypothermic effects of Δ9-THC (C57BL/6 mice [4]; [14]): completely blocked
- effect of prior rimonabant on cataleptic effects of 5F-AKB48 (C57BL/6 mice [10]; [13]): completely blocked
- effect of prior rimonabant on cataleptic effects of Δ9-THC (C57BL/6 mice [10]; [14]): completely blocked

SMILES: CCCCCc1cc(O)c2c(c1)OC(C)(C)[C@@H]1CCC(C)=C[C@@H]21 [Δ^9-THC, Δ^9-tetrahydrocannabinol]
- decrease of locomotor activity below the vehicle control condition (C57BL/6 mice [2]; Δ9-THC 32 mg/kg i.p.): approximately 5 fold
- duration of antinociceptive effects (still apparent) (C57BL/6 mice [3]; Δ9-THC 32 mg/kg i.p.): at least 6 hours
- tail withdrawal latency, % of the maximum (C57BL/6 mice [3]; Δ9-THC 32 mg/kg i.p., by 30 min post-injection): approximately 90%
- duration of hypothermic effects (still apparent after drug administration) (C57BL/6 mice [4]; Δ9-THC 32 mg/kg i.p.): ≥ 6 h
- reduction of rectal temperature below the physiological range (C57BL/6 mice [4]; Δ9-THC 32 mg/kg i.p.): approximately 4 °
- duration of cataleptic effects (still apparent) (C57BL/6 mice [10]; Δ9-THC 32 mg/kg i.p.): ≥ 6 h
- horizontal bar latency (C57BL/6 mice [10]; Δ9-THC 32 mg/kg i.p., by 15 min post-injection, 30 sec maximum): ~30 s
